{"source": "the NIST ThermoML archive (doi:10.1021/acs.jced.9b00411)", "conditions": "Crystal; DSC", "note": "Numbers after ± are expanded uncertainties.", "data": [{"smiles": "Nc1ccc(S(N)(=O)=O)cc1", "note": "[4-aminobenzenesulfonamide]", "values": [{"measurement": "Triple point temperature", "result": "437.78 ± 1.2", "unit": "K"}]}]}
